In patent US20070275943A1, “Method and Composition for Treatment or Prophylaxis of Amyloidosis Disorders” (Acrux DDS Pty Ltd., priority 2003, published 2007):

Experiments:
[1] = molar ratio 1:1 (zinc: Aβ); read-out: KD of high affinity zinc binding; cited from earlier work
[2] = Diffusion across excised human epidermis, flow-through diffusion cells, finite dose; settings: test spray (5% w/v 1,10-phenanthroline + 5% w/v octyl salicylate in 95% ethanol) vs control without enhancer, 24 h, 5 μL/cm^2, p<0.01
Method: The diffusion experiments were performed using excised human epidermis as the model membrane. These experiments were performed over 24 h with stainless steel, flow-through diffusion cells based on those previously described, (Cooper, E. R. J. Pharm. Sci. 1984, 73, 1153-1156.) except that the cell was modified to increase the diffusional area to 1.0 cm^2. The formulations were applied using a finite dose technique (Franz, T. J. Curr. Probl. Dermatol. 1978, 7, 58-68.) to mimic clinical dosing conditions at an applied dose volume of 5 μL/cm^2. A piece of stainless steel wire mesh was placed directly below the skin in the receptor chamber of the diffusion cell to maintain a turbulent flow of receptor solution below the skin. The diffusion cells were maintained at a flow rate of approximately 1.0 ml/cm^2/h by a microcassette peristaltic pump (Watson Marlow 505S, UK). The cells were kept at 32±0.5° C. by a heater bar and the samples are collected into appropriately sized plastic vials on an automated fraction collector (Isco Retriever II, Lincoln, Nebr.) at specified intervals. […]
Samples were analysed for 1,10-phenanthroline directly by RP-HPLC using the following conditions; Column—Waters Symmetry C18 column (3.9×150 mm) with a 5 μm support size; Mobile phase—20% Acetonitrile buffered with 0.01 M KH2PO4, pH=2.80; Flow rate—0.9 mL/min; Absorbance—235 nm; and Injection volume—20 μL.

increase in the transdermal delivery of 1,10-phenanthroline across the skin [2] [fold] | Molecule | Kd [1] [nM]
– | Aβ: polypeptide, major component of the amyloid deposits in Alzheimer's disease | 107
1.3 | c1cnc2c(c1)ccc1cccnc12 [1,10-phenanthroline] | –
